Data taken from patent publication US12344610B2, “APOL1 inhibitors and methods of use” (Maze Therapeutics, Inc., priority 2022, dated 2025).

Tested on: human immortalized podocytes inducibly expressing APOL1 G2
Assay: APOL1 G2 podocyte cell rescue assay (Example B4)
Assay type: cell-based
Settings: differentiated human podocytes, doxycycline-induced APOL1 G2, CellTiter-Glo, geometric mean of at least 2 runs, † = single run
Method in brief: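 Differentiated hTERT-immortalized podocytes (clone D10) with doxycycline-inducible C-terminally HiBiT-tagged APOL1 G2, 6,000 cells/well, treated with doxycycline plus 8-point 3-fold compound series (0.4% DMSO) for 95 h at 37 °C. Viability by CellTiter-Glo luminescence; EC50 as geometric mean of ≥2 runs, each in duplicate.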

Structure (SMILES)	EC50 [nM]	EC50 (Homo sapiens) [nM]
CC(c1ncc(OCCN2CCC3(CC2)C(=O)Nc2ccc(Cl)cc23)cn1)S(C)(=O)=O (single isomer, unassigned) [Compound 2, 5-chloro-1′-[2-({2-[(1S) or (1R)-1-methanesulfonylethyl]pyrimidin-5-yl}oxy)ethyl]-1,2-dihydrospiro[indole-3,4′-piperidin]-2-one]	10.7	–
CC(c1ncc(OCCN2CCC3(CC2)C(=O)Nc2ccc(Cl)cc23)cn1)S(C)(=O)=O (single isomer, unassigned) [Compound 3, 5-chloro-1′-[2-({2-[(1R) or (1S)-1-methanesulfonylethyl]pyrimidin-5-yl}oxy)ethyl]-1,2-dihydrospiro[indole-3,4′-piperidin]-2-one]	23.5	–
CC(O)c1ncc(OCCN2CCC3(CC2)C(=O)Nc2ccc(C#N)cc23)cc1C(F)(F)F (single isomer, unassigned) [Compound 376, 1′-[2-({6-[(1S) or (1R)-1-hydroxyethyl]-5-(trifluoromethyl)pyridin-3-yl}oxy)ethyl]-2-oxo-1,2-dihydrospiro[indole-3,4′-piperidine]-5-carbonitrile]	6.21	–
CC(O)c1ncc(OCCN2CCC3(CC2)C(=O)Nc2ccc(C#N)cc23)cc1C(F)(F)F (single isomer, unassigned) [Compound 377, 1′-[2-({6-(1S) or (1R)-1-hydroxyethyl]-5-(trifluoromethyl)pyridin-3-yl}oxy)ethyl]-2-oxo-1,2-dihydrospiro[indole-3,4′-piperidine]-5-carbonitrile]	24.4	–
CS(=O)(=O)C1(c2ncc(OCCN3CCC4(CC3)C(=O)Nc3ccc(C(F)F)cc34)cn2)CC1 [Compound 5, 5-(difluoromethyl)-1′-(2-{[2-(1-methanesulfonylcyclopropyl)pyrimidin-5-yl]oxy}ethyl)-1,2-dihydrospiro[indole-3,4′-piperidin]-2-one]	–	> 330
CS(=O)(=O)C1(c2ncc(OCCN3CCC4(CC3)C(=O)Nc3ccc(OC(F)F)cc34)cn2)CC1 [Compound 6, 5-(difluoromethoxy)-1′-(2-{[2-(1-methanesulfonylcyclopropyl)pyrimidin-5-yl]oxy}ethyl)-1,2-dihydrospiro[indole-3,4′-piperidin]-2-one]	–	47.7
O=C1CCc2cc(OCCN3CCC4(CC3)C(=O)Nc3ccc(Cl)cc34)cnc2N1[C@H]1C[C@H](O)C1 [Compound 267, 5-chloro-1′-[2-({7-oxo-8-[(trans)-3-hydroxycyclobutyl]-5,6,7,8-tetrahydro-1,8-naphthyridin-3-yl}oxy)ethyl]-1,2-dihydrospiro[indole-3,4′-piperidin]-2-one]	–	6.63
CS(=O)(=O)C1(c2ccc(OCCN3CCC4(CC3)C(=O)Nc3ccc(Cl)cc34)cc2)CC(O)C1 (stereo not drawn) [Compound 269, 5-chloro-1′-(2-{4-[(cis) or (trans)-3-hydroxy-1-methanesulfonylcyclobutyl]phenoxy}ethyl)-1,2-dihydrospiro[indole-3,4′-piperidin]-2-one]	30.4	–
CS(=O)(=O)C1(c2ccc(OCCN3CCC4(CC3)C(=O)Nc3ccc(Cl)cc34)cc2)CC(O)C1 (stereo not drawn) [Compound 270, 5-chloro-1′-(2-{4-[(trans) or (cis)-3-hydroxy-1-methanesulfonylcyclobutyl]phenoxy}ethyl)-1,2-dihydrospiro[indole-3,4′-piperidin]-2-one]	2.92	–
C[C@]1(O)C[C@@H](n2c(=O)cnc3cc(OCCN4CCC5(CC4)C(=O)Nc4ccc(Cl)cc45)cnc32)C1 [Compound 358, 5-chloro-1′-[2-({3-oxo-4-[(cis)-3-hydroxy-3-methylcyclobutyl]-3H,4H-pyrido[2,3-b]pyrazin-7-yl}oxy)ethyl]-1,2-dihydrospiro[indole-3,4′-piperidin]-2-one]	–	24
CC1(O)CN(c2ncc(OCCN3CCC4(CC3)C(=O)Nc3ccc(C(F)F)cc34)cn2)C1 [Compound 395, 5-(difluoromethyl)-1′-(2-{[2-(3-hydroxy-3-methylazetidin-1-yl)pyrimidin-5-yl]oxy}ethyl)-1,2-dihydrospiro[indole-3,4′-piperidin]-2-one]	–	137
